The data set in a line: Solubility in solvents. Format: physicochemical.

Experimental findings from US20160176855A1, “Novel Sterically Hindered Cyclic Amines” (CLARIANT INTERNATIONAL LTD, priority 2013, published 2016) are described below.

Regarding `CC1(C)CC(NC(=O)c2ccc(C(=O)NC3CC(C)(C)NC(C)(C)C3)o2)CC(C)(C)N1` [Example 2, N,N′-bis(2,2,6,6-tetramethyl-4-piperidinyl)-2,5-furandicarboxamide], the Solubility entry is recorded as “soluble” (in DMF); “soluble” (in ethanol); “insoluble” (in hexane); “soluble” (in methanol); “insoluble” (in water).
